Reference: article PMC6315057, “Industrial scale high-throughput screening delivers multiple fast acting macrofilaricides” (Nature Communications, 2019)
In brackets after ≈: the same amount, converted by molar mass.

Columns and labels:
[1] = test system: Wolbachia within Brugia malayi Mf; experiment: Anti-Wolbachia time-kill analysis (timed wash-out) in B. malayi Mf; type: cell-based; settings: for Exposure time to achieve a maximal Wolbachia reduction: 10x EC50, maximal reduction 70–90% normalised to vehicle control
Text: To compare the dynamics of the in vitro phenotype of our hits with existing anti-Wolbachia therapies, we employed a timed wash-out strategy (Fig. 5) at 10x EC50 to establish the anti-Wolbachia time-kill kinetics of the selected chemotypes (1A–5A), using five replicates per compound. […].
Fig. 5 Anti-Wolbachia time-kill analysis. Representatives from the top five clusters (1A–5A), as well as established anti-Wolbachia antibacterials (doxycycline (white), minocycline (grey), rifampicin (black)) were assessed after exposure for 1 day and 2 days before washing and further incubation until the standard 6-day read out. wsp:gst ratio was normalised to the DMSO vehicle control resulting in a read out of mean percentage reduction from control. Doxycycline day 6 treatment represents the result for exposure to doxycycline at 5 µM for a full 6 days (no wash). The box extends from the 25th to the 75th percentile with the median presented by the central line. The whiskers are set at the minimum and maximum therefore indicating the range from five replicates. The cluster number is indicated by colour: cluster 1 (dark blue), 2 (magenta), 3 (teal), 4 (dark gold), and 5 (light blue)
(§1) The Mf were obtained by peritoneal lavage, using a catheter, of gerbils (Meriones unguiculatus) harbouring a patent infection of B. malayi. Mf were purified using a PD-10 desalting column (Fisher), centrifuged (311 RCF for 5 min at room temperature) before the addition of 8000 Mf/well of a 96-well plate (100 µl per well) in complete media consisting of RPMI supplemented with 10% FBS, 1% penicillin streptomycin and 1% amphotericin B. Compounds were diluted in complete media and 100 µl was added per well, providing a final concentration of 5 µM, with five replicates per compound. Each plate contained doxycycline (5 µM) and DMSO controls. After incubation at 37 °C for 6 days in 5% CO2, visual assessment of Mf motility was performed and scored from 0 to 4 per well (where 0 = no movement and 4 = highly motile). DNA extraction per sample was performed using the QIAmp DNA Mini Kit before quantitative PCR was performed to obtain the ratio of Wolbachia Surface Protein gene copy number (wsp) to Glutathione S-Transferase gene copy number (gst)[36]. The DNA was amplified using the primers as indicated in Supplementary Table 6.
(§2) The wsp:gst ratio data allowed for normalisation of the Wolbachia level to the Mf biomass for each well. The change in wsp:gst for each compound compared to the DMSO control was calculated before normalisation to the onboard doxycycline control to allow for inter-assay comparison.

[2] = test system: Wolbachia within Brugia malayi Mf; experiment: B. malayi microfilarial (Mf) in vitro anti-Wolbachia assay (wsp:gst qPCR); type: cell-based; settings: Brugia malayi, 144 h; B. malayi Mf, 6 days; read-out: Mf EC50
Experimental: as §1, with “Compounds were diluted in complete media and 100 µl was added per well, providing a final concentration of 5 µM, with five replicates per compound.” left out
as §2

[3] = test system: Wolbachia in C6/36 (wAlbB) cells; experiment: Secondary concentration response HTS (IC50) anti-Wolbachia screen in C6/36 (wAlbB) insect cells; type: cell-based, Wolbachia pipientis wAlbB (in Aedes albopictus C6/36 cells); settings: Wolbachia, 168 h, 7-day incubation, 10-point concentration range
Experimental: Initially C6/36 (wAlbB) cells (insect cells stably infected with the Wolbachia target) from a single cryopreserved batch were recovered over 7 days prior to plating into 384-well assay ready plates (containing the test compounds), using a semi-automated process allowing for daily batches of ~150 plates, set up 4 days per week for 8 weeks. After a 7-day incubation period with the test compounds the plates were moved into the second fully automated stage (using the Agilent Technologies BioCel system) involving formaldehyde fixation, DNA staining of the insect cell nuclei (Hoechst) for toxicity analysis and antibody staining specific to the intracellular Wolbachia (wBmPAL primary antibody and far-red secondary antibody). In the final stage the fixed and stained plates from stage 2 were processed through automated data acquisition (High Res Biosolutions system, incorporating EnVision™ and acumen® plate readers). This industry standardised assay was then used to screen AstraZeneca’s full library of 1.3 million compounds within 10 weeks. In total this HTS included 30 × 3 week assays covering 3835 × 384-well plates. This primary HTS generated 20,255 hits defined as >80% reduction in Wolbachia with <60% toxicity to the host insect cell (eliminating false positives). This represents an overall hit rate of 1.56%. These compounds are depicted in chemical space in Fig. 2 (black points)[21].
The mosquito (Aedes albopictus) derived cell line C6/36 (ATCC® CRL 1660), stably infected with Wolbachia pipientis wAlbB (C6/36(wAlbB)), was maintained in Leibovitz L15 medium containing 2 mM L-glutamine, 1% nonessential amino acids, 2% tryptose phosphate broth and 20% heat-inactivated foetal bovine serum (FBS) at 26 °C[18]. This screen exclusively used cells from the large-scale cryopreserved batch produced as part of this campaign by culturing the cells at scale before cryopreservation (90% FBS and 10% DMSO). This produced a cell bank of 190 × 1 ml cryovials containing 3 × 10^7 cells per vial.
(§3) On day 0, a single cryovial was recovered and the cells washed before being transferred to a T225 cm^2 flask. After a 7-day recovery Wolbachia infection level (quality control (QC)) was checked by SYTO®11 DNA staining of both the host cell nuclei and intracellular Wolbachia. The end-point read out from the Operetta® high content imaging system (Perkin Elmer) was the percentage of cells infected with Wolbachia. This was obtained from cytoplasm texture analysis by the associated Harmony® software. Cells with a >50% of the population infected with Wolbachia were classed as having a good Wolbachia level and therefore used for screening through addition of 2000 cells per well into assay ready 384-well plates containing the test compounds. […] Each plate included on-board controls; vehicle/DMSO (total/maximum Wolbachia signal) or doxycycline 5 µM (null/minimum Wolbachia signal), resulting in single shot screening of 352 compounds per plate for the primary screen. […] QC plates were also created including full columns of the following controls; DMSO (total/max), 5 μM doxycycline (null/min), as well as 50 nM doxycycline (reference/medium Wolbachia signal). Daily batches contained ~150 compound plates in addition to the QC plates. Each compound plate was foil sealed before incubation for 7 days at 26 °C, 95% humidity and atmospheric air.
After 7 days of drug incubation, the plates were loaded into the fully automated BioCel system which performed the following additions; fixation and DNA staining (1.8% formaldehyde + 0.6 µg/ml Hoechst 33342, 20 min), permeabilisation (80 μl of PBS + 0.25% Triton-X 100, 30 min), blocking (PBS + 6% BSA, 40 min), overnight incubation in the Wolbachia-specific anti-wBmPAL primary antibody[34] […]

LogD7.4 = type: physicochemical; settings: pH 7.4
Text: (§4) The DMPK data used for triaging compounds, including LogD7.4, aqueous solubility, plasma protein binding, microsome and hepatocyte clearance measurements, were generated using the standard AstraZeneca UK high-throughput platform[37],[38].

[4] = Human plasma protein binding; type: in vitro ADME; settings: plasma
Text: as §4

[5] = test system: Wolbachia in C6/36 (wAlbB) cells; experiment: Confirmatory re-assessment in the insect cell screen (cell assay EC50); type: cell-based, Wolbachia pipientis wAlbB (in Aedes albopictus C6/36 cells); settings: Wolbachia, C6/36; insect cell screen, re-sourced or re-synthesised samples
Text: To further validate the hit molecules from these 9 clusters, samples were sourced either from the AstraZeneca compound inventory or through re-synthesis. All 18 samples were characterised by nuclear magnetic resonance (NMR) and mass spectroscopy to confirm their chemical structures and by HPLC/LCMS to establish their purity (Supplementary Table 5 and Supplementary Data 1). These samples were also subject to confirmatory re-assessment in both the insect cell screen and Mf assays for anti-Wolbachia potency alongside confirmation of DMPK properties (LogD7.4, aqueous solubility in pH 7.4 PBS, human microsomal turnover, rat hepatocyte turnover and human plasma protein binding) (Fig. 4, Supplementary Figure 1 and Supplementary Table 4).
as §3

Rat hepatocyte clearance = type: in vitro ADME
Text: as §4

[6] = Human microsome clearance; type: in vitro ADME; settings: human, human microsomes
Text: as §4

THP-1 cells = experiment: Mammalian cell viability counter-screen (CellTiter-Blue); type: cell-based, human; settings: Homo sapiens, 48 h, read-out: HTS IC50 mammalian toxicity
Experimental: The human monocytic THP-1 cell line (ATCC® TIB-202) used for mammalian cytotoxicity evaluation was routinely cultured in roller bottles. Growth media consisted of RPMI 1640 supplemented with 10% FBS and 2 mM L-glutamine. Cells were maintained at 37 °C with 95% humidity in 5% CO2 in a shaking incubator.
All compounds selected for secondary IC50 screen were tested in parallel for mammalian cell viability using the CellTiter-Blue® Cell Viability Assay. THP1 cells were removed from culture and plated at 1 × 10^4 cells/well (40 µl) into 384-well assay ready plates and incubated at 37 °C, 5% CO2 for 48 h at 95% humidity. After the addition of CellTiter-Blue Viability reagent (8 µl of a 1:6 dilution) the assay plates were incubated for a further 2 h before fluorescence detected using a PerkinElmer EnVision™ plate reader.

[7] = Aqueous solubility in pH 7.4 PBS; type: physicochemical; settings: PBS pH 7.4, aqueous buffer; pH 7.4 PBS; read-out: Aqueous solubility in pH7.4 PBS
Text: as §4

| Compound | EC50 [2] [nM] | logD (LogD7.4) | fraction unbound [4] | Rat hepatocytes CLint (Rat hepatocyte clearance) [µl/min/1x106 cells] | microsomal CLint [6] [µL/min/mg] | solubility [7] [µM] | Exposure time to achieve a maximal Wolbachia reduction [1] [days] | Wolbachia reduction after a single day of exposure ([1]; 10x EC50, 1 day exposure, wash, 6-day read out, normalised to vehicle control) [%] | IC50 [3] [nM] | EC50 [5] [nM] | IC50 (THP-1 cells) [nM] |
| --- | --- | --- | --- | --- | --- | --- | --- | --- | --- | --- | --- |
| CN(C)c1ccc(O)c2c1C[C@H]1C[C@H]3[C@H](N(C)C)C(O)=C(C(N)=O)C(=O)[C@@]3(O)C(O)=C1C2=O [minocycline, reference compound] |  |  |  |  |  |  | > 2 |  |  |  |  |
| CO[C@H]1/C=C/O[C@@]2(C)Oc3c(C)c(O)c4c(O)c(c(/C=N/N5CCN(C)CC5)c(O)c4c3C2=O)NC(=O)/C(C)=C\C=C\[C@H](C)[C@H](O)[C@@H](C)[C@@H](O)[C@@H](C)[C@H](OC(C)=O)[C@@H]1C [rifampicin, reference compound] |  |  |  |  |  |  | > 2 |  |  |  |  |
| Cc1nc(C(=O)NC(C)c2cccc3ccccc23)c(NC(=O)Cc2ccccc2)[nH]1 (centres unmarked) [5B, 2-methyl-N-(1-(naphthalen-1-yl)ethyl)-5-(2-phenylacetamido)-1H-imidazole-4-carboxamide] | 294 | 4.6 | 0.011 | 71.1 | 101 | 22 (≈ 9.07 µg/mL) |  |  | 158 | 68 | > 30600 |

Now from value to compound, other results behind:

| EC50 [2] [nM] | logD (LogD7.4) | fraction unbound [4] | Rat hepatocytes CLint (Rat hepatocyte clearance) [µl/min/1x106 cells] | microsomal CLint [6] [µL/min/mg] | solubility [7] [µM] | Compound | Exposure time to achieve a maximal Wolbachia reduction [1] [days] | Wolbachia reduction after a single day of exposure ([1]; 10x EC50, 1 day exposure, wash, 6-day read out, normalised to vehicle control) [%] | IC50 [3] [nM] | EC50 [5] [nM] | IC50 (THP-1 cells) [nM] |
| --- | --- | --- | --- | --- | --- | --- | --- | --- | --- | --- | --- |
| 250 |  |  |  |  |  | C[C@H]1c2cccc(O)c2C(=O)C2=C(O)[C@]3(O)C(=O)C(C(N)=O)=C(O)[C@@H](N(C)C)[C@@H]3[C@@H](O)[C@@H]21 [doxycycline, reference compound] | > 2 | 9 |  |  |  |
| > 5000 | 1.6 | 0.4 | 22.9 | 3.5 | 756 (≈ 233 µg/mL) | Cc1csc(CN(C)c2nc3c(s2)C(=O)NCCC3)n1 [6B, 2-(methyl((4-methylthiazol-2-yl)methyl)amino)-5,6,7,8-tetrahydro-4H-thiazolo[5,4-c]azepin-4-one] |  |  | 594 | 897 | > 30600 |
| > 5000 | 3.1 | 0.034 | > 300 | > 300 | 6 (≈ 2.46 µg/mL) | CN(Cc1cccc(Br)c1)S(=O)(=O)c1ccc2c(c1)C(=O)NCC2 [8B, N-(3-bromobenzyl)-N-methyl-1-oxo-1,2,3,4-tetrahydroisoquinoline-7-sulfonamide] |  |  | 535 | 873 | > 30600 |
